Structures are written as SMILES.

These results are taken from patent US8232287B2, “Pyrimidyl indoline compound” (Daiichi Sankyo Company, Limited, priority 2007, dated 2012).

This assay has as its system Mice C57/BL6J. Description: Oral glucose tolerance test (oGTT) using mice. The class given is in vivo. Conditions: Mus musculus, 2 h; blood glucose AUC vs vehicle-administered group; fasted male C57/BL6J mice; 1 mg/ml suspension in 0.5% methylcellulose given orally 30 min before oral glucose load; plasma glucose at pre, 15, 30, 60, 120 min; read-out: Rate of decrease in AUC (%). The method, then: Oral Glucose Tolerance Test (oGTT) Using Mice
2.0 to 8.0 mg of a test compound was weighed and then placed in an agate mortar. While the compound was pulverized, a 0.5% methylcellulose solution was added thereto to prepare a 1 mg/ml suspension. Mice C57/BL6J (6- to 8-week-old male) were purchased from Charles River Laboratories Japan Inc. and raised in a cage until they became 9- to 13-week-old. The mice were fasted after 5 to 6 p.m. of the day before the test. On the test day, blood was collected from the tail vein, and the preceding prepared suspension was orally administered to each of the mice. Thirty minutes after administration, blood was further collected from the tail vein (plasma glucose level in this blood was used as a pre-value), and a 20 to 30% glucose solution was then orally administered thereto at a dose of 10 ml/kg for glucose load. After the glucose load, blood was further collected from the tail vein at time points 15, 30, 60, and 120 minutes. The collected blood was centrifuged to separate plasma. The pre-value and plasma glucose levels at 15, 30, 60, and 120 minutes after the glucose load were measured using Glucoroder GXT (Shino-Test Corp.), and the rate of decrease in blood glucose AUC (%) from a vehicle-administered group was calculated. To this vehicle-administered group, a 0.5% methylcellulose solution was administered instead of the suspension of the compound.
As for `CC(C)OC(=O)N1CC[C@H](Oc2cc(N3CCc4cc(S(C)(=O)=O)ccc43)ncn2)[C@H](F)C1` (relative stereo) [Example 117, isopropyl cis-3-fluoro-4-[6-(5-methanesulfonyl-2,3-dihydro-indol-1-yl)-pyrimidin-4-yloxy]-piperidine-1-carboxylate], the inhibition in vivo at 1000 µg/mL was determined as 27%.

Take `CC(C)(C)OC(=O)N1CCC(Oc2cc(N3CCc4cc(S(C)(=O)=O)ccc43)ncn2)CC1` [Example 1, tert-butyl 4-({6-[5-(methylsulfonyl)indolin-1-yl]pyrimidin-4-yl}oxy)piperidine-1-carboxylate]: the inhibition in vivo at 1000 µg/mL was determined as 28%.

Regarding `CC(C)OC(=O)N1CCC(Oc2cc(N3CCc4cc(S(C)(=O)=O)ccc43)ncn2)CC1` [Example 2, isopropyl 4-({6-[5-(methylsulfonyl)indolin-1-yl]pyrimidin-4-yl}oxy)piperidine-1-carboxylate], the inhibition in vivo at 1000 µg/mL was determined as 22%.

`CCS(=O)(=O)c1ccc2c(c1)CCN2c1cc(OC2CCN(C(=O)OCC(C)C)CC2)ncn1` [Example 22, isobutyl 4-({6-[5-(ethylsulfonyl)indolin-1-yl]pyrimidin-4-yl}oxy)piperidine-1-carboxylate]: the inhibition in vivo at 1000 µg/mL worked out at 21%.

In the case of `CCS(=O)(=O)c1ccc2c(c1)CCN2c1cc(OC2CCN(C(=O)OC(C)C)CC2)ncn1` [Example 31, isopropyl 4-({6-[5-(ethylsulfonyl)indolin-1-yl]pyrimidin-4-yl}oxy)piperidine-1-carboxylate], the inhibition in vivo at 1000 µg/mL amounted to 20%.

With `CS(=O)(=O)c1ccc2c(c1)CCN2c1cc(OC2CCN(C(=O)OCC3CC3)CC2)ncn1` [Example 44, cyclopropylmethyl 4-({6-[5-(methylsulfonyl)indolin-1-yl]pyrimidin-4-yl}oxy)piperidine-1-carboxylate], the inhibition in vivo at 1000 µg/mL worked out at 18%.

With `CCS(=O)(=O)c1ccc2c(c1)CCN2c1cc(OC2CCN(C(=O)OCC(F)F)CC2)ncn1` [Example 60, 2,2-difluoroethyl 4-({6-[5-(ethylsulfonyl)indolin-1-yl]pyrimidin-4-yl}oxy)piperidine-1-carboxylate], the inhibition in vivo at 1000 µg/mL came out at 22%.

With `C[S+]([O-])c1ccc2c(c1)CCN2c1cc(OC2CCN(C(=O)OC(C)(C)C)CC2)ncn1` (stereo not drawn) [Example 80, tert-butyl 4-({6-[5-(methylsulfinyl)indolin-1-yl]pyrimidin-4-yl}oxy)piperidine-1-carboxylate], the inhibition in vivo at 1000 µg/mL worked out at 19%.

For `COc1c(OC2CCN(C(=O)OC(C)C)CC2)ncnc1N1CCc2cc(S(C)(=O)=O)ccc21` [Example 83, isopropyl 4-({5-methoxy-6-[5-(methylsulfonyl)indolin-1-yl]pyrimidin-4-yl}oxy)piperidine-1-carboxylate], the inhibition in vivo at 1000 µg/mL was 20%.

Consider `CC(C)(C)OC(=O)N1CCC(Oc2cc(N3CCc4cc(S(=O)(=O)CCF)ccc43)ncn2)CC1` [Example 85, tert-butyl 4-[(6-{5-[(2-fluoroethyl)sulfonyl]indolin-1-yl}pyrimidin-4-yl)oxy]piperidine-1-carboxylate], for which the inhibition in vivo at 1000 µg/mL was determined as 27%.

`CC(C)CC(=O)N1CCC(Oc2cc(N3CCc4cc(S(C)(=O)=O)ccc43)ncn2)CC1` [Example 92, 1-(6-{[1-(3-methylbutanoyl)piperidin-4-yl]oxy}pyrimidin-4-yl)-5-(methylsulfonyl)indoline]: the inhibition in vivo at 1000 µg/mL came out at 16%.

For `CS(=O)(=O)c1ccc2c(c1)CCN2c1cc(OC2CCN(C(=O)Oc3ccc(F)cc3)CC2)ncn1` [Example 93, 4-fluorophenyl 4-({6-[5-(methylsulfonyl)indolin-1-yl]pyrimidin-4-yl}oxy)piperidine-1-carboxylate], the inhibition in vivo at 1000 µg/mL came out at 15%.

On to `CS(=O)(=O)c1ccc2c(c1)CCN2c1cc(OC2CCN(C(=O)OCC(F)(F)F)CC2)ncn1` [Example 104, 2,2,2-trifluoroethyl 4-({6-[5-(methylsulfonyl)indolin-1-yl]pyrimidin-4-yl}oxy)piperidine-1-carboxylate], for which the inhibition in vivo at 1000 µg/mL amounted to 10%.

Take `C[S+]([O-])c1ccc2c(c1)CCN2c1cc(OC2CCN(C(=O)OCC(F)(F)F)CC2)ncn1` (stereo not drawn) [Example 116, 2,2,2-trifluoroethyl 4-({6-[5-(methylsulfinyl)indolin-1-yl]pyrimidin-4-yl}oxy)piperidine-1-carboxylate]: the inhibition in vivo at 1000 µg/mL amounted to 17%.

With `C[S+]([O-])c1ccc2c(c1)CCN2c1cc(OC2CCN(C(=O)OCC3CC3)CC2)ncn1` (stereo not drawn) [Example 118, cyclopropylmethyl 4-({6-[5-(methylsulfinyl)indolin-1-yl]pyrimidin-4-yl}oxy)piperidine-1-carboxylate], the inhibition in vivo at 1000 µg/mL came out at 16%.
